Data: patent publication US8765735B2, “Isoxazolines as inhibitors of fatty acid amide hydrolase” (Infinity Pharmaceuticals, Inc., priority 2009, dated 2014)

Biological target: T1, human FAAH (Homo sapiens, UniProt O00519)
T1 construct: host or cells: COS-7 cells, transient transfection; 13,000 g membrane fraction solubilised in 1% Triton X-100
T1 sequence (O00519 1-579): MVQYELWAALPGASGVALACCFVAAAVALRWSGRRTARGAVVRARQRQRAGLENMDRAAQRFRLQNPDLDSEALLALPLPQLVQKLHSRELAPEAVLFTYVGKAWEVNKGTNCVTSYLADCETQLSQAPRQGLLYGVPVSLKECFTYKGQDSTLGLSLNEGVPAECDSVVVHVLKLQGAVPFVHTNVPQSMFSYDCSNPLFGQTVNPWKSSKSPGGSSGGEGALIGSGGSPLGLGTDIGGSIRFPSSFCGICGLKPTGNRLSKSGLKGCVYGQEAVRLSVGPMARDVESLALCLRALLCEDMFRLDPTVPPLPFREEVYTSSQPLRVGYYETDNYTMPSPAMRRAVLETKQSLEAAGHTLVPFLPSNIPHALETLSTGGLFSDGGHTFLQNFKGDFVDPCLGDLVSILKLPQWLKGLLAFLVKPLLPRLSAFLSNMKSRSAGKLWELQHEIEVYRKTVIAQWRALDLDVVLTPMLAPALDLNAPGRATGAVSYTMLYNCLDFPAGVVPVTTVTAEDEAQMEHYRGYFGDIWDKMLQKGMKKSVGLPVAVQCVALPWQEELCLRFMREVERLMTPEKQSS
Test: Inhibition of human FAAH (fluorescence assay, AMC arachidonoyl amide substrate)
Type: biochemical
Details: solubilized human FAAH from transfected COS-7 cells; 30 min preincubation; 20 μM AMC-arachidonoyl amide; 4 h at room temperature
Description: Human FAAH Preparation: COS-7 cells were split the day before, 1:5 into 150 mm×25 mm cell culture dishes (Corning Inc., Cat. No. 430599). Transient transfection took place at 30-40% confluency according to FuGENE 6 Transfection Reagent (Roche, Cat. No. 11814 443 001).
Transfection Procedure: The FuGENE transfection 6 reagent (45 uL) was added to 1410 μL of media (DMEM, serum free without pen/strep) in a 15 mL conical tube and incubated at room temp for 5 minutes, followed by the addition of FAAH plasmid DNA (15 μg) (OriGene Cat. No. TC119221, Genbank Accession No. NM_001441.1, 0.67 ug/uL) and a further incubation of 15 minutes at room temperature. The resulting solution was added into one dish of 30-40% confluent COS-7 cells in a drop-wise manner. The COS-7 cell dish was subsequently incubated for 48 hours. The cells are then harvested.
Harvest procedure: Media was aspirated from the dishes and the cells rinsed with 10 mL PBS. The PBS was removed and 3 mL of PBS added to the dish. The dish was scraped to resuspend the cells, and the subsequent cell suspension collected into a 15 mL conical tube. The cells were pelleted by centrifugation at 1200 rpm for 5 minutes in a bench top centrifuge. PBS was removed and the cell pellet snap frozen in liquid nitrogen and stored at −80° C.
COS-7 cells—FAAH purification: • (1) Fractionation: Frozen cell pellets from transient transfections were thawed on ice and resuspended in 12.5 mM Hepes pH 8.0, 100 mM NaCl, 1 mM EDTA (10 mL/0.2 g cell pellet). The pellets were dounce homogenized and then sonicated to produce cell extract. The cell extract was subsequently centrifuged at 1000 g to remove cellular debris. The pellet was discarded and the supernatant centrifuged at 13,000 g for 20 minutes. The pellet contained membrane bound FAAH. The supernatant was discarded and the pellet resolubilized. • (2) Re-solubilization: The fraction of interest, (13,000 g, membrane fraction) was re-suspended in 2.3 mL re-suspension buffer (20 mM Hepes pH 7.8, 10% v/v Glycerol, 1 mM EDTA, 1% Triton X-100) and the sample incubated on ice for 1 hour and then centrifuged to remove any particulate matter. The supernatant containing solubilized human FAAH was aliquoted and snap frozen in liquid nitrogen and stored at 80° C. until use. • (3) Characterization: Protein Concentration determined by Bradford assay. • SDS gel and Western blot to confirm presence of FAAH • FAAH activity assay • Km determination—96-well assay • Linear dependence—96-well assay • Standard compound Ki determination—384-well assay
Human FAAH assay; Experimental Protocol: A 0.1 mg/mL Human FAAH solution was made up in FAAH reaction buffer, and 24 ul pipeted into a 384 well plate. To this was added 1 μL of a 3 fold serially diluted inhibitor from a DMSO stock solution. The FAAH solution and inhibitor were incubated for 30 minutes at room temperature. The FAAH reaction was initiated by the addition of 25 μL of 40 μM AMC Arachidonoyl Amide in FAAH reaction buffer, yielding a final reaction human FAAH preparation concentration of 0.05 mg/ml and AMC-Arachidonoyl substrate concentration of 20 μM, reaction volume 50 μL. The reaction was allowed to proceed for 4 hours at room temperature. The reaction was stopped by the addition of 25 μL 12 μM a-ketoheterocycle (Cayman Chemicals, catalogue #10435). The microtiter plate was read in the envision plate reader.
The raw fluorescence was plotted on the y axis and the inhibitor concentration on the x axis to give a dose response inhibition curve. The data was fitted to a single site competitive inhibition equation, fixing the Km for the human enzyme to 12 μM and 9 μM respectively.

SMILES	Ki
O=C(CCCC(F)(F)F)N1CCC2(CC1)CC(Oc1cncnc1)=NO2 [III-57]	≥ 1000 nM
CC(C)(C)OC(=O)N1CCC[C@]2(CC1)CC(Br)=NO2 [III-12b]	≤ 100 nM
FC(F)(F)Oc1ccc2c(c1)CC[C@@]21CC(Br)=NO1 [III-66a]	≤ 100 nM
BrC1=NOC2(CCN(Cc3ccccn3)CC2)C1 [III-22]	100 to 1000 nM
CS(=O)(=O)c1ccc(OC2=NO[C@@]3(CCc4cc(OC(F)(F)F)ccc43)C2)cn1 [III-68b]	≤ 100 nM
CC(C)(C)OC(=O)N1CCC[C@]2(CC(Br)=NO2)C1 [III-10b]	≥ 1000 nM
BrC1=NOC2(CCN(Cc3ccccc3)CC2)C1 [III-19]	≤ 100 nM
Cn1nccc1-c1ccc(OC2=NO[C@]3(CCc4cc(OC(F)(F)F)ccc43)C2)cn1 [III-71a]	≤ 100 nM
Clc1ccc(CN2CCC3(CC2)CC(Oc2cncnc2)=NO3)cc1 [III-52]	≤ 100 nM
O=C(CCc1ccccc1)N1CCC2(CC1)CC(Br)=NO2 [III-34]	≤ 100 nM
O=C(OCc1ccccc1)N1CCC2(CC1)CC(Br)=NO2 [III-18]	≤ 100 nM
BrC1=NO[C@@]2(CCCc3cc(Oc4ccccc4)ccc32)C1 [III-62b]	≤ 100 nM
C[N+]1(C2=NOC3(CCN(C(=O)OCc4ccccc4)CC3)C2)CCCC1 [III-60]	≥ 1000 nM
O=C(OCc1ccccc1)N1CCC2(CC1)CC(N1CCCC1)=NO2 [III-59]	≥ 1000 nM
BrC1=NOC2(CCCCC2)C1 [III-1]	≤ 100 nM
BrC1=NOC2CC(OCc3ccccc3)CC12 (stereo not shown) [III-42]	100 to 1000 nM
FC(F)(F)Oc1ccc2c(c1)CC[C@]21CC(Br)=NO1 [III-66b]	≤ 100 nM
Clc1ccc(CN2CCC3(CC2)CC(Br)=NO3)cc1 [III-20]	≤ 100 nM
BrC1=NO[C@]2(CC[C@H](c3ccccc3)CC2)C1 [III-3a]	≤ 100 nM
O=C(Nc1ccccc1)N1CCC2(CC1)CC(Oc1cncnc1)=NO2 [III-56]	≥ 1000 nM
CC(C)(C)[C@H]1CC[C@@]2(CC1)CC(Br)=NO2 [III-2b]	100 to 1000 nM
COc1ccc(CN2CCC3(CC2)CC(Br)=NO3)cc1 [III-21]	≤ 100 nM
CC(C)(C)OC(=O)N1C[C@@H]2ON=C(Br)[C@@H]2C1 [III-43b]	100 to 1000 nM
O=C(c1ccc(Cl)cc1)N1CCC2(CC1)CC(Oc1cncnc1)=NO2 [III-55]	≤ 100 nM

SMILES	Ki
BrC1=NO[C@]2(CCc3cc(Oc4ccccc4)ccc32)C1 [III-63a]	≤ 100 nM
O=C(CCc1ccccc1)N1CCC2(CC1)CC(Oc1cncnc1)=NO2 [III-54]	100 to 1000 nM
CC(C)(C)OC(=O)N1C[C@@H]2C(Br)=NO[C@@H]2C1 [III-43a]	100 to 1000 nM
O=C(OCc1ccccc1)N1CCC2(CC1)CC(Oc1cccnc1)=NO2 [III-46]	≤ 100 nM
BrC1=NO[C@]2(CC[C@@H](c3ccccc3)CC2)C1 [III-3b]	≤ 100 nM
Cn1nccc1-c1ccc(OC2=NO[C@@]3(CCc4cc(OC(F)(F)F)ccc43)C2)cn1 [III-71b]	≤ 100 nM
BrC1=NOC2(CCN(CCCc3ccccc3)CC2)C1 [III-28]	≤ 100 nM
BrC1=NOC2(CCC3(CC2)OCCO3)C1 [III-4]	≥ 1000 nM
FC(F)(F)c1ccc(CN2CCC3(CC2)CC(Br)=NO3)cc1 [III-26]	≤ 100 nM
BrC1=NOC2(CCNCC2)C1 [III-14]	≥ 1000 nM
Clc1ccc(CN2CCC3(CC2)CC(Br)=NO3)cc1Cl [III-25]	≤ 100 nM
C#Cc1ccc(CN2CCC3(CC2)CC(Br)=NO3)cc1 [III-49]	≤ 100 nM
BrC1=NO[C@]2(CC[C@@H](COc3ccccc3)CC2)C1 [III-8b]	≤ 100 nM
CC(C)COC(=O)N1CCC2(CC1)CC(Br)=NO2 [III-36]	≤ 100 nM
BrC1=NO[C@]2(CC[C@H](COc3ccccc3)CC2)C1 [III-8a]	≤ 100 nM
CC(C)(C)OC(=O)N1CCC[C@@]2(CC1)CC(Br)=NO2 [III-12a]	≤ 100 nM
CC(C)(C)OC(=O)N1CCC2(CC1)CC(Cl)=NO2 [III-47]	≤ 100 nM
C#Cc1ccc(CN2CCC3(CC2)CC(Oc2cccnc2)=NO3)cc1 [III-50]	≤ 100 nM
BrC1=NOC2(CCN(c3ccc(Br)cc3)CC2)C1 [III-31]	100 to 1000 nM
ClC1=NOC2(CCN(Cc3ccc(Cl)cc3)CC2)C1 [III-48]	≤ 100 nM
Clc1ccc(CN2CC3ON=C(Br)C3C2)cc1 (stereo not shown) [III-45]	≥ 1000 nM
O=C(OCC(Cl)(Cl)Cl)N1CCC2(CC1)CC(Br)=NO2 [III-38]	100 to 1000 nM
O=S(=O)(c1ccccc1)N1CCC2(CC1)CC(Br)=NO2 [III-17]	100 to 1000 nM
Cc1ccc(CN2CCC3(CC2)CC(Br)=NO3)cc1 [III-24]	≤ 100 nM

SMILES	Ki
CS(=O)(=O)c1ccc(OC2=NO[C@]3(CCc4cc(OC(F)(F)F)ccc43)C2)cn1 [III-68a]	≤ 100 nM
BrC1=NO[C@]2(CCCc3cc(Oc4ccccc4)ccc32)C1 [III-62a]	≤ 100 nM
CC(C)(C)OC(=O)N1C2CCC1CC1(CC(Br)=NO1)C2 (stereo not shown) [III-13a]	≥ 1000 nM
CC(=O)N1CCC2(CC1)CC(Br)=NO2 [III-15]	≥ 1000 nM
O=C(O)c1ccc(OC2=NO[C@@]3(CCc4cc(OC(F)(F)F)ccc43)C2)cn1 [III-74b]	≤ 100 nM
CSc1ccc(OC2=NO[C@@]3(CCc4cc(OC(F)(F)F)ccc43)C2)cn1 [III-67b]	≤ 100 nM
Cn1cc(-c2ccc(OC3=NO[C@]4(CCc5cc(OC(F)(F)F)ccc54)C3)cn2)cn1 [III-70a]	≤ 100 nM
CC(C)(C)CN1CCC2(CC1)CC(Br)=NO2 [III-33]	100 to 1000 nM
O=C(c1ccccc1)N1CCC2(CC1)CC(Br)=NO2 [III-16]	≤ 100 nM
FC(F)(F)Oc1ccc2c(c1)CC[C@@]21CC(Oc2cncc(-c3nnco3)c2)=NO1 [III-73a]	≤ 100 nM
BrC1=NOC2(CCN(c3ccccc3)CC2)C1 [III-30]	100 to 1000 nM
O=C(Oc1ccccc1)N1CCC2(CC1)CC(Br)=NO2 [III-37]	≤ 100 nM
BrC1=NOC2(CCN(CC3CCCCC3)CC2)C1 [III-32]	≤ 100 nM
O=C(OCc1ccccc1)N1CC2ON=C(Br)C2C1 (stereo not shown) [III-44]	≤ 100 nM
CSc1ccc(OC2=NO[C@]3(CCc4cc(OC(F)(F)F)ccc43)C2)cn1 [III-67a]	≤ 100 nM
FC(F)(F)Oc1ccc2c(c1)CC[C@]21CC(Oc2cncc(-c3nnco3)c2)=NO1 [III-73b]	≤ 100 nM
BrC1=NOC2(CCN(CCc3ccccc3)CC2)C1 [III-29]	≤ 100 nM
CS(=O)(=O)c1ccc(OC2=NOC3(CCN(C(=O)c4ccccc4)CC3)C2)cn1 [III-58]	100 to 1000 nM
CC(C)(C)OC(=O)N1CCC2(CC1)CC(Br)=NO2 [III-9]	≤ 100 nM
CC(C)(C)[C@H]1CC[C@]2(CC1)CC(Br)=NO2 [III-2a]	100 to 1000 nM
Clc1ccc(CN2CCC3(CC2)CC(Oc2cccnc2)=NO3)cc1 [III-51]	≤ 100 nM
CC(C)(C)OC(=O)N1CC[C@]2(CC(Br)=NO2)C1 [III-11b]	100 to 1000 nM
